Source: patent US4594340A, “25,26-dehydro-1α,24R-dihydroxycholecalciferol and 25,26-dehydro-1α,24S-dihydroxycholecalciferol and the epimeric mixture” (Hoffmann-La Roche Inc., priority 1984, dated 1986)
Like-named read-outs stand apart in the source and are kept apart here.

How the values were obtained:
HL-60 cells [1] = assay: Anti-proliferative effect on HL-60 cells (Coulter Counter enumeration); type: cell-based, human (patient); details: for inhibition at 0.015 µM / inhibition at 0.045 µM / inhibition at 0.09 µM: Homo sapiens, read-out: percent reduction of cell numbers relative to control
Description: (§1) Cultures of HL-60 cells were established in the absence (control) or presence of various concentrations of the test compound. After a 4-day incubation period, the cultures were evaluated for proliferation of tumor cells, tumor cell viability, and cellular differentiation. Proliferation was assessed by directly enumerating the increased number of tumor cells resulting from incubation. Viability was determined by dye exclusion technique to learn whether any of the compounds were lethal to cultured HL-60 cells. Cellular differentiation was evaluated by determining the number of cells which had acquired the enzymes necessary to support a respiratory burst and the functional ability to phagocytose (bind/internalize) particulate material from their environment; both activities being characteristic of mature macrophages and granulocytes,
Tissure culture medium used in these experiments was RPM1-1640 supplemented prior to use to 10% v/v with fetal bovine serum (heat inactivated at 56° for 30 minutes), to 130 units per ml with penicillin and 130 μg per ml with streptomycin, and to an additional 1.6 millimolar with L-glutamine.
(§2) Experimental compounds were dissolved in sufficient ethanol to yield stock solutions of 1×10^-2 molar. Reduced lighting was employed when working with compounds and stock solutions were stored in the dark at -20° in an argon atmosphere. Compounds were diluted with tissue culture medium and added to flasks containing HL-60 cells to achieve the final concentrations described in each experiment.
(§3) The promyelocytic (HL-60) tumor cell line was derived from a patient with acute promyelocytic leukemia. HL-60 cells were maintained in liquid culture by serial weekly passage in tissue culture medium. In any experiment, three replicate flasks were incubated without compound (control) or in the presence of varying concentrations of compound. […]
Quantitation of proliferation was done by enumerating the number of HL-60 cells in each individual flasks (3 flasks per experimental point) using a model ZBI Coulter Counter. Results are shown as the number of cells per ml of tissue culture medium expressed as the mean±standard deviation and as percent reduction of cell number calculated according to the formula: [formula] Experimental cultures with the same or slightly greater cell numbers than control cultures are reported as zero percent reduction.

HL-60 cells [2] = assay: Differentiation of HL-60 cells by nitroblue tetrazolium (NBT) reduction; type: cell-based, human (patient)
Description: as §1, with “After a 4-day incubation period, the cultures were evaluated for proliferation of tumor cells, tumor cell viability, and cellular differentiation.” left out
as §2, §3
Quantitation of differentiated cells was done by the biochemical method of nitroblue tetrazolium (NBT) reduction. Sufficient cells were pooled from replicate cultures, centrifuged at 220×g, washed once with serum-free tissue culture medium, and resuspended to 1×10^6 cells per ml in Ca^++ --Mg^++ -deficient phosphate buffered saline (prepared by supplementing Ca^++ --Mg^++ -free phosphate buffered saline (PBS) to 10% v/v with heat-inactivated fetal bovine serum). Nitroblue tetrazolium was dissolved at 1 mg per ml in Ca^++ --Mg^++ -deficient PBS with gentle heating and mixing. Tetradecanoyl phorbol acetate (TPA) was dissolved at 1 mg per ml in ethanol and stored at -20° C. Just prior to use, a working solution of TPA was prepared by diluting the stock concentration 100-fold with Ca^++ --Mg^++ -deficient PBS. The test was done in 12×75 mm tubes by adding 0.5 ml Ca^++ --Mg^++ -deficient PBS, 1.0 ml of HL-60 cells, 0.5 ml of NBT solution, and 0.02 ml of the working TPA solution. After mixing, the tubes were incubated in a 37° water bath for 25 minutes then transferred to ice. Undifferentiated and differentiated cells present in any sample were determined microscopically by surveying 200-400 cells per sample or by cytofluorograph by surveying greater than 30,000 cells. Cells without pigmented granules (clear cells) were judged to be undifferentiated while those containing greater than 3 blue-black formazan granules were scored as differentiated. […] Results are expressed as the percentage of differentiated cells present in any sample as calculated according to the formula: [formula]

C=C(C)[C@H](O)CC[C@@H](C)[C@H]1CC[C@H]2/C(=C/C=C3/C[C@@H](O)C[C@H](O)C3=C)CCC[C@]12C [25,26-dehydro-1α,24R-dihydroxycholecalciferol]
inhibition of proliferation of HL-60 cells (HL-60 cells [1]): inhibited by 25,26-dehydro-1α,24R-dihydroxycholecalciferol in a dose-dependent fashion
HL-60 Cells per ml (HL-60 cells [1]; 15 × 10^-9 molar (first line of that concentration), day 3): 12.0 ± 0.2 cells per ml (× 10^-4)
HL-60 Cells per ml (HL-60 cells [1]; 15 × 10^-9 molar (first line of that concentration), day 4): 24.1 ± 1.0 cells per ml (× 10^-4)
HL-60 Cells per ml (HL-60 cells [1]; 15 × 10^-9 molar (first line of that concentration), day 6): 113.0 ± 1.4 cells per ml (× 10^-4)
HL-60 Cells per ml (HL-60 cells [1]; 15 × 10^-9 molar (second line), day 3): 12.0 ± 0.5 cells per ml (× 10^-4)
HL-60 Cells per ml (HL-60 cells [1]; 15 × 10^-9 molar (second line), day 4): 22.0 ± 0.4 cells per ml (× 10^-4)
HL-60 Cells per ml (HL-60 cells [1]; 15 × 10^-9 molar (second line), day 6): 71.4 ± 1.3 cells per ml (× 10^-4)
HL-60 Cells per ml (HL-60 cells [1]; 45 × 10^-9 molar, day 3): 12.3 ± 0.2 cells per ml (× 10^-4)
HL-60 Cells per ml (HL-60 cells [1]; 45 × 10^-9 molar, day 4): 19.0 ± 0.8 cells per ml (× 10^-4)
HL-60 Cells per ml (HL-60 cells [1]; 45 × 10^-9 molar, day 6): 31.4 ± 0.5 cells per ml (× 10^-4)
HL-60 Cells per ml (HL-60 cells [1]; 90 × 10^-9 molar, day 3): 11.8 ± 0.1 cells per ml (× 10^-4)
HL-60 Cells per ml (HL-60 cells [1]; 90 × 10^-9 molar, day 4): 15.4 ± 0.9 cells per ml (× 10^-4)
HL-60 Cells per ml (HL-60 cells [1]; 90 × 10^-9 molar, day 6): 21.4 ± 1.1 cells per ml (× 10^-4)
inhibition at 0.015 µM (HL-60 cells [1]; HL-60, 72 h, 15 × 10^-9 molar (first line of that concentration), day 3): 0%
inhibition at 0.015 µM (HL-60 cells [1]; HL-60, 72 h, 15 × 10^-9 molar (second line), day 3): 0%
inhibition at 0.045 µM (HL-60 cells [1]; HL-60, 72 h, 45 × 10^-9 molar, day 3): 0%
inhibition at 0.09 µM (HL-60 cells [1]; HL-60, 72 h, 90 × 10^-9 molar, day 3): 0%
inhibition at 0.015 µM (HL-60 cells [1]; HL-60, 96 h, 15 × 10^-9 molar (first line of that concentration), day 4): 9%
inhibition at 0.015 µM (HL-60 cells [1]; HL-60, 96 h, 15 × 10^-9 molar (second line), day 4): 17%
inhibition at 0.045 µM (HL-60 cells [1]; HL-60, 96 h, 45 × 10^-9 molar, day 4): 28%
inhibition at 0.09 µM (HL-60 cells [1]; HL-60, 96 h, 90 × 10^-9 molar, day 4): 42%
inhibition at 0.015 µM (HL-60 cells [1]; HL-60, 144 h, 15 × 10^-9 molar (first line of that concentration), day 6): 11%
inhibition at 0.015 µM (HL-60 cells [1]; HL-60, 144 h, 15 × 10^-9 molar (second line), day 6): 44%
inhibition at 0.045 µM (HL-60 cells [1]; HL-60, 144 h, 45 × 10^-9 molar, day 6): 75%
inhibition at 0.09 µM (HL-60 cells [1]; HL-60, 144 h, 90 × 10^-9 molar, day 6): 83%
inhibition of proliferation detectable by cell enumeration as early as (HL-60 cells [1]; day of incubation): 4 days
induction of cellular differentiation (NBT reduction) (HL-60 cells [2]; 5, 15, 45 or 90×10^-9 molar, all incubation times): increasing proportions of differentiated cells at all incubation times
% diff. (NBT reduction) (HL-60 cells [2]; 5 × 10^-9 molar, day 3): 5%
diff. cells / total (NBT reduction) (HL-60 cells [2]; 5 × 10^-9 molar, day 3): 2443/44545
% diff. (NBT reduction) (HL-60 cells [2]; 5 × 10^-9 molar, day 4): 8%
diff. cells / total (NBT reduction) (HL-60 cells [2]; 5 × 10^-9 molar, day 4): 3401/42923
% diff. (NBT reduction) (HL-60 cells [2]; 5 × 10^-9 molar, day 6): 7%
diff. cells / total (NBT reduction) (HL-60 cells [2]; 5 × 10^-9 molar, day 6): 3179/47638
% diff. (NBT reduction) (HL-60 cells [2]; 15 × 10^-9 molar, day 3): 22%
diff. cells / total (NBT reduction) (HL-60 cells [2]; 15 × 10^-9 molar, day 3): 8971/40398
% diff. (NBT reduction) (HL-60 cells [2]; 15 × 10^-9 molar, day 4): 23%
diff. cells / total (NBT reduction) (HL-60 cells [2]; 15 × 10^-9 molar, day 4): 9489/40666
% diff. (NBT reduction) (HL-60 cells [2]; 15 × 10^-9 molar, day 6): 17%
diff. cells / total (NBT reduction) (HL-60 cells [2]; 15 × 10^-9 molar, day 6): 8167/47032
% diff. (NBT reduction) (HL-60 cells [2]; 45 × 10^-9 molar, day 3): 49%
